From patent US12435062B2, “Amide compounds and uses thereof” (HUTCHISON MEDIPHARMA LIMITED, priority 2020, dated 2025)
pIC50: −log10 of the molar value.

Assays:
Ba/F3^BCR-FMS-11 cells = experiment: Cell proliferation experiment (Ba/F3^BCR-FMS-11, cckit-8); format: cell-based, mouse; conditions: Mus musculus, Ba/F3^BCR-FMS-11 cell proliferation
Summary of the method: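 Ba/F3 cells stably expressing BCR-FMS, CSF-1R-dependent for growth, seeded at 5000/well in RPMI 1640 with 10% FBS and exposed to 8 compound concentrations for 72 h at 37 °C.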

[1] = molecular target: CSF1R phosphorylation in THP-1 cells (Homo sapiens (Human), UniProt P07333); experiment: Detection of CSF1R phosphorylation activity at cell level (THP-1, M-CSF stimulated, ELISA); format: cell-based; conditions: p-CSF1R ELISA, compound 60 min, 300 ng/mL M-CSF 1 min
Summary of the method: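 THP-1 cells (5×10^4/well, RPMI 1640, 2% FBS) were pre-treated with compound for 60 min at 37 °C, then stimulated with 300 ng/mL M-CSF for 1 min and lysed. Phospho-CSF1R was read by sandwich ELISA (p-CSF1R capture, anti-phosphotyrosine-HRP detection, OD 450/570 nm). IC50 was fitted with cell-free wells as background.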

[2] = molecular target: Recombinant human CSF1R kinase (Homo sapiens (Human), UniProt P07333); format: biochemical; conditions: Z-LYTE Tyr 1 peptide substrate
Sequence of Recombinant human CSF1R kinase (P07333 20-972): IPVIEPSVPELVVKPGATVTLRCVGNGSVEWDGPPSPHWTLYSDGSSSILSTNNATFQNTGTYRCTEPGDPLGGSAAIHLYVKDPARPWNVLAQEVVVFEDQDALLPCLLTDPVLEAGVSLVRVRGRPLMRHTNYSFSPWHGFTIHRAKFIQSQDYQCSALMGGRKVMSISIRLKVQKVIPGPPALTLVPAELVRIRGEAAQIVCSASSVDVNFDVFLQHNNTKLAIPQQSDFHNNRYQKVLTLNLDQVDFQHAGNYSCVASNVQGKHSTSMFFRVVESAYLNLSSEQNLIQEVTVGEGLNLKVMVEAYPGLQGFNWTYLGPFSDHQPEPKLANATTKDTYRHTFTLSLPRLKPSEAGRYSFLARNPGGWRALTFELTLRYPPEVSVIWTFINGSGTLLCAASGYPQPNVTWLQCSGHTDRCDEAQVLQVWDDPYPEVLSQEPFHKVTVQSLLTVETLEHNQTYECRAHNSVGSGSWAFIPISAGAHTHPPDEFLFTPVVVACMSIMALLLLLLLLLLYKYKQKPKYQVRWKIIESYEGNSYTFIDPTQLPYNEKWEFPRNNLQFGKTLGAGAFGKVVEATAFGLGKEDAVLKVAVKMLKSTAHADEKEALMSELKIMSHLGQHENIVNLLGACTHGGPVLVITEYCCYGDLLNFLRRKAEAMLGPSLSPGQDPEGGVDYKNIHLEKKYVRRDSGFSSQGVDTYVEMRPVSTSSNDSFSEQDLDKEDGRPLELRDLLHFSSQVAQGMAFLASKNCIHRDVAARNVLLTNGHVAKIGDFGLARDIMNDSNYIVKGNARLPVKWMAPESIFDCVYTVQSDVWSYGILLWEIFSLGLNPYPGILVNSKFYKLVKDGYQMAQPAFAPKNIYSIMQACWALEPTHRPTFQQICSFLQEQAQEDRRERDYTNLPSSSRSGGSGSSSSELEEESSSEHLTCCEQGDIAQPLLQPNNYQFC
Protocol: Measurement of CSF1R Kinase Activity at Molecular Level
1. Reagents and materials:
• Z-LYTE™ Tyr 1 peptide substrate: Invitrogen, PV3190; • 5× kinase buffer: Invitrogen, PV3189; • 10 mM ATP: Invitrogen, PV3227; • Development reagent B: Invitrogen, PV3295; • Development buffer: Invitrogen, P3127; • Stopping solution: Invitrogen, P3094; • Recombinant human CSF1R kinase: Invitrogen, PR4598A; • 384 well plate, black: Corning, 3575; Envision: Perkin Elmer. 2. Preparation of reaction solutions
1) 1.33× kinase buffer: 5× kinase buffer was diluted to a 1.33× kinase buffer with ddH2O.
2) Dilution of a 4× test compound: The test compound was diluted in gradient to 4-fold the reaction concentration and the concentration of DMSO was kept at 8%. The final concentration of the compound in reaction was: 1, 0.33, 0.11, 0.037, 0.012, 0.004, 0.0014, 0.00046 μM, and the final concentration of DMSO was 2%.
3) A mixture of kinase/peptide substrate: In 1.33× kinase buffer, the kinase and Z-LYTE™ Tyr 1 peptide substrate were diluted to 0.12 μg/mL and 4 μM, respectively, to prepare a mixture of kinase/peptide substrate. The mixture was mixed gently with a pipette.
4) A phosphorylated peptide substrate solution (PP solution): 0.4 μL of Z-LYTE™ Tyr1 phosphorylated peptide substrate was added to 99.6 μL of 1.33× kinase buffer.
5) ATP solution: 10 mM of ATP was diluted to 760 μM with 1.33× kinase buffer to prepare ATP solution.
6) Development solution: Development reagent B was diluted with Development buffer at a ratio of 1:200.
1) Kinase reaction (10 μL system)
2.5 μL of 4× test compound was added to each reaction well of the 384 plate, and the corresponding volume of 8% DMSO was added to the control well. The plate was placed on ice. 5 μL of a mixture of kinase/peptide substrate, 2.5 μL of kinase buffer and ATP solution were successively added to each well. Three control groups were set up: Group C1 contains only kinase buffer, group C2 contains the mixture of kinase/peptide substrate, kinase buffer and ATP, and group C3 contains 5 μL of PP solution. After adding the reaction components, the 384-well plate was sealed and incubated at 25-30° C. for 1 h in dark.
5 μL of Development solution was added to each well, sealed and incubated at 25-30° C. for another 1 h in dark.
3) Reaction stopping and plate reading
5 μL of stopping solution was added to each well. The Coumarin value (excitation at 400 nm, emission at 445 nm) and Fluorescein value (excitation at 400 nm, emission at 520 nm) were measured, respectively.
ER (emission ratio): Coumarin emission read-out (445 nm)/Fluorescein emission read-out (520 nm); • C3 445 nm: 100% phosphorylated Coumarin emission read-out; • C3 520 nm: 100% phosphorylated Fluorescein emission read-out; • C1 445 nm: 0% phosphorylated Coumarin emission read-out; • C1 520 nm: 0% phosphorylated Fluorescein emission read-out. Inhibition rate % (IR)=[1−% phosphorylation ratetest sample/100% phosphorylation ratecontrol]×100%
% phosphorylation ratetest sample: phosphorylation rate of the test compound; • 100% phosphorylation ratecontrol: phosphorylation rate of C3 control group.
5. IC50 values: calculated by using software XL-Fit™ (version 5.3) supplied by ID Business Solutions (Guildford, UK), which is an additional software to Microsoft Excel.

Sequence of CSF1R phosphorylation in THP-1 cells (P07333 20-972): as above

Structure (SMILES)	pIC50 (Ba/F3^BCR-FMS-11 cells; 72 h)	pIC50 [1]	pIC50 [2]	pIC50 (Ba/F3^BCR-FMS-11 cells; 72 hours)
CC(C)n1cccc(C(=O)Nc2ccc(Oc3ccnc(-c4cnn(CCO)c4)c3)cn2)c1=O [Compound 95, N-(5-((2-(1-(2-hydroxyethyl)-1H-pyrazol-4-yl)pyridin-4-yl)oxy)pyridin-2-yl)-1-isopropyl-2-oxo-1,2-dihydropyridine-3-carboxamide]	7.85	7.80	8.10	
CC(C)n1cccc(C(=O)Nc2ccc(Oc3ccnc(Nc4cnn(C)c4)c3)cn2)c1=O [Compound 96, 1-isopropyl-N-(5-((2-((1-methyl-1H-pyrazol-4-yl)amino)pyridin-4-yl)oxy)pyridin-2-yl)-2-oxo-1,2-dihydropyridine-3-carboxamide]	8.00	8.10	8.10	
Cn1cc(Nc2cc(Oc3ccc(NC(=O)c4cccn(C)c4=O)nc3)ccn2)cn1 [Compound 97]	7.82	8.15	7.74	
CC(C)n1cccc(C(=O)Nc2ccc(Oc3ccnc(-c4nccn4C)c3)cn2)c1=O [Compound 102]	6.82	6.88	7.44	
Cn1cc(-c2cc(Oc3ccc(NC(=O)c4cccn(C5CC5)c4=O)nc3)ccn2)cn1 [Compound 104, 1-cyclopropyl-N-(5-((2-(1-methyl-1H-pyrazol-4-yl)pyridin-4-yl)oxy)pyridin-2-yl)-2-oxo-1,2-dihydropyridine-3-carboxamide]	8.22	7.85	8.30	
Cn1cc(-c2cc(Oc3ccc(NC(=O)c4ccc(N)n(C)c4=O)nc3)ccn2)cn1 [Compound 105, 6-amino-1-methyl-N-(5-((2-(1-methyl-1H-pyrazol-4-yl)pyridin-4-yl)oxy)pyridin-2-yl)-2-oxo-1,2-dihydropyridine-3-carboxamide]	7.08	7.16	8.05	
Cc1ncc(C(=O)Nc2ccc(Oc3ccnc(-c4cnn(CCO)c4)c3)cn2)c(=O)n1C [Compound 113, N-(5-((2-(1-(2-hydroxyethyl)-1H-pyrazol-4-yl)pyridin-4-yl)oxy)pyridin-2-yl)-1,2-dimethyl-6-oxo-1,6-dihydropyrimidine-5-carboxamide]	7.32	7.77	7.47	
Cc1ncc(-c2cc(Oc3ccc(NC(=O)c4cccn(C)c4=O)nc3)ccn2)s1 [Compound 114]	7.10	7.46	7.38	
Cc1ncc(C(=O)Nc2ccc(Oc3ccnc(-c4cccs4)c3)cn2)c(=O)n1C [Compound 116]	6.70	7.68	6.98	
Cc1nc(-c2cc(Oc3ccc(NC(=O)c4cnc(C)n(C)c4=O)nc3)ccn2)cs1 [Compound 120]	7.41	7.68	7.28	
CC(C)n1nccc(C(=O)Nc2ccc(Oc3ccnc(-c4ccn(C)c4)c3)cn2)c1=O [Compound 126]	7.55	7.52	7.60	
[2H]C([2H])([2H])n1c(C)ncc(C(=O)Nc2ccc(Oc3ccnc(-c4cnn(C)c4)c3)cn2)c1=O [Compound 128, 2-methyl-1-(methyl-d3)-N-(5-((2-(1-methyl-1H-pyrazol-4-yl)pyridin-4-yl)oxy)pyridin-2-yl)-6-oxo-1,6-dihydropyrimidine-5-carboxamide]		8.22	8.30	8.70
[2H]C([2H])([2H])n1cc(-c2cc(Oc3ccc(NC(=O)c4cnc(C)n(C)c4=O)nc3)ccn2)cn1 [Compound 129, 1,2-dimethyl-N-(5-((2-(1-(methyl-d3)-1H-pyrazol-4-yl)pyridin-4-yl)oxy)pyridin-2-yl)-6-oxo-1,6-dihydropyrimidine-5-carboxamide]		8.15	8.40	8.70
Cc1ncc(C(=O)Nc2ccc(Oc3ccnc(-c4cn[nH]c4)c3)cn2)c(=O)n1C [Compound 130, N-(5-((2-(1H-pyrazol-4-yl)pyridin-4-yl)oxy)pyridin-2-yl)-1,2-dimethyl-6-oxo-1,6-dihydropyrimidine-5-carboxamide]	7.82	8.15	7.68	
Cn1cc(-c2cc(Oc3ccc(NC(=O)c4cnc(CO)[nH]c4=O)nc3)ccn2)cn1 [Compound 133, 2-(hydroxymethyl)-N-(5-((2-(1-methyl-1H-pyrazol-4-yl)pyridin-4-yl)oxy)pyridin-2-yl)-6-oxo-1,6-dihydropyrimidine-5-carboxamide]	< 5.48	< 5.52	6.26	

Continued by rising pIC50 (Ba/F3^BCR-FMS-11 cells; 72 h), values first:

pIC50 (Ba/F3^BCR-FMS-11 cells; 72 h)	pIC50 [1]	pIC50 [2]	Structure (SMILES)	pIC50 (Ba/F3^BCR-FMS-11 cells; 72 hours)
5.92	5.67	6.70	Cn1cc(-c2cc(Oc3ccc(NC(=O)c4cnc(CCO)[nH]c4=O)nc3)ccn2)cn1 [Compound 132, 2-(2-hydroxyethyl)-N-(5-((2-(1-methyl-1H-pyrazol-4-yl)pyridin-4-yl)oxy)pyridin-2-yl)-6-oxo-1,6-dihydropyrimidine-5-carboxamide]	
6.27	6.13	7.15	Cn1ncc(-c2cc(Oc3ccc(NC(=O)c4cccn(C)c4=O)nc3)ccn2)n1 [Compound 99, 1-methyl-N-(5-((2-(2-methyl-2H-1,2,3-triazol-4-yl)pyridin-4-yl)oxy)pyridin-2-yl)-2-oxo-1,2-dihydropyridine-3-carboxamide]	
6.40	7.25	7.12	Cc1ncc(C(=O)Nc2ccc(Oc3ccnc(-c4cnn(C)c4)c3)cn2)c(=O)[nH]1 [Compound 131, 2-methyl-N-(5-((2-(1-methyl-1H-pyrazol-4-yl)pyridin-4-yl)oxy)pyridin-2-yl)-6-oxo-1,6-dihydropyrimidine-5-carboxamide]	
7.42	7.66	7.34	Cc1ccc(-c2cc(Oc3ccc(NC(=O)c4cccn(C)c4=O)nc3)ccn2)cn1 [Compound 115]	
7.46	7.77	8.05	Cn1cnc(-c2cc(Oc3ccc(NC(=O)c4cccn(C)c4=O)nc3)ccn2)c1 [Compound 107, 1-methyl-N-(5-((2-(1-methyl-1H-imidazol-4-yl)pyridin-4-yl)oxy)pyridin-2-yl)-2-oxo-1,2-dihydropyridine-3-carboxamide]	
7.51	7.66	8.15	Cc1ccc(-c2cc(Oc3ccc(NC(=O)c4cccn(C(C)C)c4=O)nc3)ccn2)cn1 [Compound 101]	
7.60	7.80	7.72	Cc1ncc(C(=O)Nc2ccc(Cc3ccnc(-c4cnn(C)c4)c3)cn2)c(=O)n1C [Compound 123, 1,2-dimethyl-N-(5-((2-(1-methyl-1H-pyrazol-4-yl)pyridin-4-yl)methyl)pyridin-2-yl)-6-oxo-1,6-dihydropyrimidine-5-carboxamide]	
7.66	8.00	7.72	Cc1cc(Nc2cc(Oc3ccc(NC(=O)c4cccn(C)c4=O)nc3)ccn2)n[nH]1 [Compound 112]	
7.77	7.62	8.15	CC(C)n1cccc(C(=O)Nc2ccc(Oc3ccnc(-c4ccn(C)c4)c3)cn2)c1=O [Compound 125]	
7.82	7.82	8.10	CC(C)n1cccc(C(=O)Nc2ccc(Oc3ccnc(-c4cn(C)cn4)c3)cn2)c1=O [Compound 100]	
7.92	7.62	7.96	CC(C)n1cccc(C(=O)Nc2ncc(Oc3ccnc(-c4cnn(C)c4)c3)cc2F)c1=O [Compound 108]	
7.96	7.72	7.80	Cc1cc(C(=O)Nc2ccc(Oc3ccnc(-c4ccn(C)c4)c3)cn2)c(=O)n(C)c1 [Compound 124]	
8.05	8.15	8.22	CC(C)n1cccc(C(=O)Nc2ccc(Oc3ccnc(-c4cn(C)nn4)c3)cn2)c1=O [Compound 103]	
8.05	8.10	8.15	Cc1ncc(C(=O)Nc2ccc(Oc3ccnc(-c4ccn(C)c4)c3)cn2)c(=O)n1C [Compound 117, 1,2-dimethyl-N-(5-((2-(1-methyl-1H-pyrrol-3-yl)pyridin-4-yl)oxy)pyridin-2-yl)-6-oxo-1,6-dihydropyrimidine-5-carboxamide]	
8.10	8.00	7.72	Cc1cc(Nc2cc(Oc3ccc(NC(=O)c4cnc(C)n(C)c4=O)nc3)ccn2)n[nH]1 [Compound 111, 1,2-dimethyl-N-(5-((2-((5-methyl-1H-pyrazol-3-yl)amino)pyridin-4-yl)oxy)pyridin-2-yl)-6-oxo-1,6-dihydropyrimidine-5-carboxamide]	
8.15	8.00	8.15	CNc1ccc(C(=O)Nc2ccc(Oc3ccnc(-c4cnn(C)c4)c3)cn2)c(=O)n1C [Compound 106, 1-methyl-N-(5-((2-(1-methyl-1H-pyrazol-4-yl)pyridin-4-yl)oxy)pyridin-2-yl)-6-(methylamino)-2-oxo-1,2-dihydropyridine-3-carboxamide]	
8.22	7.68	7.72	Cc1cc(C(=O)Nc2ccc(Oc3ccnc(-c4cnn(C)c4)c3)cn2)c(=O)n(C)c1 [Compound 118]	
